Source: paper PMC10065799, “High-throughput profiling of sequence recognition by tyrosine kinases and SH2 domains using bacterial peptide display” (eLife, 2023)
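Also: log2 fold change in enrichment of variant over reference.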

The sequences below were run on Fer kinase domain (assay: pTyr-Var library bacterial peptide display kinase screen (enrichment scores)). Conditions: sheet "Fer"; value of the variant peptide against its reference peptide in the pTyr-Var library screen with Fer.
Assay type: biochemical, mouse
For SVESPYGSVTF [NDRG2_Y47_T45S], the Screen was 0.8943. PQEVMYAQLDH [KIR3DL2_Y398_T397M] was tested, and the Screen was 0.4165. In the case of PFSSPYENSLI [EPOR_Y489_N487S_YF], the Screen is reported as 0.2958. In the case of SVGGCYEQLFV [MC4R_Y41_D37V], the Screen is reported as -0.4465. With KGEDFYCVTCP [FHL1_Y149_H154P] the Screen was 2.355. With GHMFAYDWISI [BEST1_Y227_L224M_YF] the Screen was -0.1339. Sequence SWSTSYSGFRC [NKAPL_Y91_Y96C_YF] has a Screen of -1.554. Work on FTGDIYSSSNL [LZTR1_Y141_N143S_YF] yielded a Screen of -0.3328. For VHLFAYDWISI [BEST1_Y227_G222V_YF], the Screen was -0.5402. For LTELGYSFVTT [ACTA1_Y200_R198L], the Screen was 0.9203. For GHPFAYDWISI [BEST1_Y227_L224P_YF], the Screen was -0.03554. SRDDFYETIAM [NPY1R_Y347_D346Y_YF] was tested, and the Screen was 2.699. For LKVQVYILGRE [ASS1_Y359_G356V], the Screen was 1.05. For PSPMPYAFCQM [FOXL2_Y215_S217F], the Screen was 3.3. IFGVSYGEFRF [CFTR_Y512_D513G_YF] was tested, and the Screen was -1.628. Sequence KKDGPYDVVVL [PARK7_Y67_E64D] has a Screen of -0.9233.

Same assay, conditions: sheet "Fer"; variant peptide relative to its reference peptide, pTyr-Var library screen enrichment
TEDELYQLFLQ [RASGRP2_Y378_S381F] was tested, and the Screen was 1.535. NTGDDYDLFGG [PTPN11_Y63_Y62D_YF] showed a Screen of -1.594. TLERHYKELQA [SPTBN2_Y834_E835K] showed a Screen of -2.093. SVVVHYEPPEV [TP53_Y220_P219H] gave a Screen of 1.725. Sequence TWEKPYECVQC [ZNF24_Y335_G331W] has a Screen of 1.366. Work on AEFGLYGAMVW [VSX2_Y222_R227W_YF] yielded a Screen of 1.328. Sequence AAVPAYDKIQV [STXBP2_Y401_R405Q] has a Screen of 1.488. Sequence TVSQPYSFIEF [SEC22B_Y110_R108Q] has a Screen of 0.7571.

These sequences were tested against T1, c-Abl kinase domain (Mus musculus, UniProt P00520) in the same assay as above. Conditions: fig5-data2, sheet "Abl"; Screen for the variant/reference peptide pair, pTyr-Var library.
T1 sequence (P00520 242-493 limits assumed): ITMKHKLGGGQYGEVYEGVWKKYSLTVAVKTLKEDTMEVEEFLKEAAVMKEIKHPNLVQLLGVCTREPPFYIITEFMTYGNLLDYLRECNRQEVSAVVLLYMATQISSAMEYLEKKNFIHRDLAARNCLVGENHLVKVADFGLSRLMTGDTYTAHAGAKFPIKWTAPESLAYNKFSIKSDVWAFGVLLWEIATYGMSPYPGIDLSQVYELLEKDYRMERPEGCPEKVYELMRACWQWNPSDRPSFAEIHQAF
Assay type: biochemical
For AVLSLYASGRN [ACTA1_Y145_T150N], the Screen was -2.061. Work on GSERRYTREGG [PTPRN2_Y139_S140T] yielded a Screen of -0.6086. With ELTTCYRKKCS [CCBE1_Y70_C75S] the Screen was -0.6974. VWHRRYKHTHE [CTCF_Y343_R339W] gave a Screen of -0.9062. With TEIGQYGNGLK [MORC2_Y100_Q96E] the Screen was -0.8794. INMKEYCKKDF [NTN1_Y490_K489E_YF] showed a Screen of 0.9886. WNDPDYMDSRR [GAA_Y407_L405P] gave a Screen of -1.862. Sequence KGEDFYCVTCP [FHL1_Y149_H154P] has a Screen of -1.428. LDPDSYNVFEN [FOXC1_Y159_M161V] gave a Screen of -0.1184. Sequence GFPVHYTGVSN [DNMT3B_Y815_D817G] has a Screen of 0.7985. Work on RQIQSYTCEID [DES_Y331_H326R] yielded a Screen of 0.08274. For TLGPFYPSLLF [CRYAA_Y18_R21L], the Screen was 1.059. For MSDVPYVMNRG [ACAT1_Y161_N158D], the Screen was 0.04557. HFVDEYDRTIE [KRAS_Y32_P34R] showed a Screen of 1.156. In the case of RVFRDYVLKSA [HTATIP2_Y111_D108Y_YF], the Screen is reported as -1.327. QHVPDYRQNGF [PCDHGA6_Y891_V895G_YF] gave a Screen of 0.1057. DEWFLYKMRDI [CPS1_Y879_K875E] was tested, and the Screen was -2.954. In the case of CPASVYTKRCS [CPT2_Y508_R503C], the Screen is reported as -1.448. For NTEGGYCCICA [CRELD1_Y328_R329C], the Screen was -0.2438. For LDTSQYFRLFN [CPT2_Y217_M214T], the Screen was -0.04852. Sequence EAIMTYVSSFF [ACTN4_Y260_K255E_YF] has a Screen of -1.004. In the case of FMGVEYSSCDT [EPHA3_Y937_T933M], the Screen is reported as -2.367. Sequence RSSGGYEPRGC [FUS_Y239_R244C] has a Screen of -2.404. Sequence GGPAGYLWRAS [PKLR_Y38_R40W] has a Screen of 0.4229. NFPGGYSGSVK [MCPH1_Y606_L602F] gave a Screen of 0.06785.

Same assay, conditions: sheet "Abl"; effect of variant peptide relative to its reference peptide in pTyr-Var library screen (enrichment)
For AERKLYRNVML [ZNF569_Y33_Q29E], the Screen was 1.464. CHSDDYVHISI [TSC1_Y406_L411I] was tested, and the Screen was -1.634. Sequence AELKLYSGAQT [ZAP70_Y178_R175L] has a Screen of -2.646. For AKLDIYKRKVE [VWA3B_Y918_N916D], the Screen was 4.352. GLQDEYDFKCK [STAT1_Y170_D165G] was tested, and the Screen was -1.133. VPVPGYTKVPE [SPRR3_Y146_L149V] gave a Screen of 2.059. In the case of ETKTPYTVILI [SBDS_Y128_R126T], the Screen is reported as 0.2291. With VVRSLYEDLED [VHL_Y185_I180V] the Screen was -2.047. Sequence RTTIHYNFMCN [TP53_Y234_C229R_YF] has a Screen of 1.254. In the case of NWGSPYKSDGC [ZNF347_Y261_N264D], the Screen is reported as 3.66. VCDALYPPGPP [TTN_Y25928_A25923V] gave a Screen of -1.728. Work on TWEKPYECVQC [ZNF24_Y335_G331W] yielded a Screen of -4.858. With LFLASYCIGGG [UBD_Y161_C160S] the Screen was 1.114. For CHKRTYKVTGL [TTN_Y21853_C21851R], the Screen was -1.801. AEFGLYGAMVW [VSX2_Y222_R227W_YF] showed a Screen of 3.628. With VLAAQYTTVGR [SGSH_Y240_D235V] the Screen was 1.42. KTSGNYLPVTG [WDR19_Y28_A30P] gave a Screen of -2.37.

These sequences were tested on EPHB1 kinase domain in the same assay as above. Conditions: sheet EPHB1; effect of the variant peptide relative to its reference peptide in the pTyr-Var library screen (enrichment scores).
Assay type: biochemical, human
In the case of HLVLNYGVCIC [JAK2_Y613_V617I], the Screen is reported as -0.07338. In the case of HFGNNYTDVLQ [MACC1_Y803_R804T_YF], the Screen is reported as 1.456. VPLATYMQIFK [RPL21_Y30_R32Q_YF] was tested, and the Screen was 2.259. Work on RSACTYLAPHL [PLK3_Y615_S618P] yielded a Screen of 2.327.

The sequences below were run against c-Src kinase domain (Homo sapiens, UniProt P12931) in the same assay as above. Conditions: not given.
Assay type: biochemical
Work on FSQETYFRVSN [ABCD1_Y180_Q178E_YF] yielded a Screen of 0.7032.

Same assay, conditions: sheet "Src"; effect of the variant peptide relative to its reference peptide in the pTyr-Var library screen
Work on SSEILYHIIKG [CDH17_Y489_K486E] yielded a Screen of 3.183. PQEVMYAQLDH [KIR3DL2_Y398_T397M] gave a Screen of -0.9154. HLTLVYGGIFL [FBP1_Y259_R255L] was tested, and the Screen was -0.5188. ENELTYFCFKK [CD59_Y86_C89Y_YF] gave a Screen of 1.06. SVGGCYEQLFV [MC4R_Y41_D37V] was tested, and the Screen was -0.5254. In the case of KQMEQYMSFHK [HCN1_Y417_V414M], the Screen is reported as 0.2609. Work on KGEDFYCVTCP [FHL1_Y149_H154P] yielded a Screen of 2.585. HFMELYDLNRD [BBS2_Y648_R643H_YF] showed a Screen of 1.185. Work on HILFRYPKEFQ [IDS_Y234_P231L] yielded a Screen of 0.8356. With PINLFYLMDLS [ITGB2_Y131_D128N_YF] the Screen was -0.4123. Work on FTGDIYSSSNL [LZTR1_Y141_N143S_YF] yielded a Screen of -0.3427. PADCRYFTFPQ [GAMT_Y222_A224T_YF] was tested, and the Screen was 0.8198. Work on RSSNTYTLMDV [ALCAM_Y298_T301M] yielded a Screen of -0.02147. PSPMPYAFCQM [FOXL2_Y215_S217F] showed a Screen of 1.188. Work on LITTPYIGFLG [KCNQ1_Y267_L266P] yielded a Screen of -1.29. For EFFDGYWEFSV [ITGA2B_Y265_G267E_YF], the Screen was 0.01389. IFGVSYGEFRF [CFTR_Y512_D513G_YF] was tested, and the Screen was 1.211. EGDGVYTLNDE [HP_Y125_N129D] gave a Screen of -0.1677.

Same assay, conditions: sheet "Src"; variant peptide versus its reference peptide in the pTyr-Var library screen
SVESPYGSVTF [NDRG2_Y47_T45S] showed a Screen of 0.3806. LIGTPYWMAPE [PAK5_Y608_V604I] gave a Screen of -0.06712. TEDELYQLFLQ [RASGRP2_Y378_S381F] showed a Screen of 1.657. Work on DAVCFYRMENA [NPHS2_Y195_I192V_YF] yielded a Screen of 0.05721. NTGDDYDLFGG [PTPN11_Y63_Y62D_YF] showed a Screen of -2.136. Sequence REVPVYISEDS [SYNM_Y460_G462S] has a Screen of 1.666. In the case of PNLILYGDFRQ [MYH7_Y715_R712L], the Screen is reported as -0.8884. ISRDVYSTDFF [NTRK2_Y702_M697I_YF] showed a Screen of 0.05631. With SWSTSYSGFRC [NKAPL_Y91_Y96C_YF] the Screen was -0.8065. Work on VPLATYMQIFK [RPL21_Y30_R32Q_YF] yielded a Screen of 1.658. VDTPMYATMQR [TPO_Y55_A53P] was tested, and the Screen was -0.2543. Sequence AEFGLYGAMVW [VSX2_Y222_R227W_YF] has a Screen of -0.4242. TVSQPYSFIEF [SEC22B_Y110_R108Q] showed a Screen of 0.852. PVDGEYFTLQI [TP53_Y327_L323V] was tested, and the Screen was -0.1089. EVTRLYGSVCD [TC2N_Y154_K151T] showed a Screen of 2.081. SEKVVYQRFTE [NCF1_Y41_R42Q] was tested, and the Screen was 2.147. Work on PMWHPYKADVT [TP53TG5_Y255_V257A] yielded a Screen of -1.569. RSACTYLAPHL [PLK3_Y615_S618P] showed a Screen of 2.785.
